According to PubChem BioAssay (NCI):
Values joined by “and” are separate entries in the source; they are usually repeats but may differ in a detail not shown here. Identical values can stand only once.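 Step 1: Grow cells in 96-well plates. Step 2: Expose to compound for 48 hours at 5 concentrations. Step 3: Interpolate endpoints linearly; if unreached, use highest concentration. GI50 marks 50% less growth. TGI: total growth inhibition.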

Columns and labels:
Assay in all cases: NCI tumour cell line growth inhibition, 48 h
OVCAR-5 ovarian = system: OVCAR-5 ovarian
KM12 colon = system: KM12 colon
MDA-N = system: MDA-N
LOX IMVI melanoma = system: LOX IMVI melanoma
SNB-75 CNS = system: SNB-75 CNS
CAKI-1 renal = system: CAKI-1 renal
TK-10 renal = system: TK-10 renal
RXF 393 renal = system: RXF 393 renal
MCF7 breast = system: MCF7 breast
CCRF-CEM leukemia = system: CCRF-CEM leukemia
A498 renal = system: A498 renal
A549 NSCLC = system: A549 NSCLC

Row | SMILES | TGI (OVCAR-5 ovarian) | TGI (KM12 colon) | TGI (MDA-N) | TGI (LOX IMVI melanoma) | TGI (SNB-75 CNS) | TGI (CAKI-1 renal) | TGI (TK-10 renal) | TGI (RXF 393 renal) | TGI (MCF7 breast) | TGI (CCRF-CEM leukemia) | TGI (A498 renal) | TGI (A549 NSCLC) | GI50 (MDA-N) | GI50 (LOX IMVI melanoma) | GI50 (CCRF-CEM leukemia)
1 | Cc1cn2cc(-c3cccs3)nc2s1 | > 100 µM | > 100 µM | > 100 µM | > 100 µM | > 100 µM | > 100 µM | > 100 µM | > 100 µM | > 100 µM | > 100 µM | > 100 µM | > 100 µM | – | – | –
2 | O=C1CSC(c2c[nH]c3ccccc23)N1c1cccc(Cl)c1 (configuration not stated) | > 100 µM | > 100 µM | > 100 µM | – | > 100 µM | – | > 100 µM | > 100 µM | > 100 µM | > 100 µM | > 100 µM | > 100 µM | – | – | –
3 | O=C1c2ccccc2-c2nnc3c(c21)Cc1ccccc1C3 | > 10 µM | > 10 µM | > 10 µM | > 10 µM | > 10 µM | > 10 µM | > 10 µM | > 10 µM | > 10 µM | > 10 µM | > 10 µM | > 10 µM | – | – | –
4 | C[N+]1(C)C2CC(OC(=O)C(CO)c3ccccc3)CC1C1OC12 (configuration not stated) | > 100 µM | > 100 µM | > 100 µM | > 100 µM | > 100 µM | > 100 µM | > 100 µM | > 100 µM | > 100 µM | > 100 µM | > 100 µM | > 100 µM | – | – | –
5 | C#CCOC(=O)C(N)CC(N)=O (configuration not stated) | > 100 µM | > 100 µM | > 100 µM | > 100 µM | > 100 µM | > 100 µM | > 100 µM | > 100 µM | > 100 µM | > 100 µM | > 100 µM | > 100 µM | – | – | –
6 | Cc1ccc2c(c1C)C(=O)C1(C2)Cc2ccc3c(c2C1=O)CCC3 (configuration not stated) | > 100 µM | > 100 µM | > 100 µM | – | > 100 µM | > 100 µM | > 100 µM | > 100 µM | > 100 µM | > 100 µM | > 100 µM | > 100 µM | – | – | –
7 | COc1ccc(/C=C/C(=O)c2cc(OC)cc(OC)c2)cc1 | 18.1 µM | 2.23 µM | 5.33 µM | 15.4 µM | 8.19 µM | 12.9 µM | 23.9 µM | 8.6 µM | 0.952 µM | 10.1 µM | 11.7 µM | 6.96 µM | – | – | –
8 | C=C1c2nc3ccccc3n2C=C(c2ccc(OC)cc2)N1c1ccc(OCCN2CCCCC2)cc1 | > 100 µM | > 100 µM | > 100 µM | > 44 µM | > 100 µM | > 100 µM | 41.8 µM | > 77 µM | > 100 µM | 10.1 µM | > 84.5 µM | > 84.6 µM | – | – | –
9 | CCCN(CCC)C(=S)Sc1nc(C)nc(N2CCN(c3nc(C)nc(SC(=S)N(CCC)CCC)c3[N+](=O)[O-])CC2)c1[N+](=O)[O-] | 45.4 µM | 33.4 µM | > 100 µM | 2.27 µM | > 100 µM | 34.4 µM | 41.9 µM | > 29.5 µM | 11.9 µM | 8.55 µM | – | > 84.5 µM | – | – | –
10 | CC(C#N)(c1ccccc1)N(CCc1ccccc1)C(=O)Oc1ccccc1 (configuration not stated) | > 100 µM | > 100 µM | > 100 µM | > 100 µM | 81.6 µM | > 100 µM | > 100 µM | > 100 µM | > 100 µM | > 100 µM | > 100 µM | > 100 µM | – | – | –
11 | CC1=C(O)C(=O)C=C2C1=CC=C1[C@@]2(C)CC[C@@]2(C)C3C[C@@H](C)C(=O)[C@@H](O)[C@]3(C)CC[C@]12C (some centres not stated) | 9.29 µM | 19.6 µM | 3.3 µM | 3.02 µM | 17.3 µM | 2.83 µM | 3.82 µM | 3.49 µM | 11 µM | 1.87 µM | 12.4 µM | 28.5 µM | – | – | –
12 | COC(=O)c1cc2ccc(O)c(O)c2cn1 | 35 µM | 32 µM | 2.89 µM and 3.69 µM | 5.43 µM and 3.31 µM | 36.6 µM | 25.7 µM | 34.6 µM | 32.7 µM | 8.1 µM | > 100 µM | – | 63.1 µM | 1.89 µM | 1.57 µM | 4.62 µM
13 | C=CCN1C(=O)CC2[C@@H]3CCc4cc(O)ccc4C3CC[C@]2(C)C1=O (some centres not stated) | > 10 µM | > 10 µM | > 10 µM | > 10 µM | – | > 10 µM | > 10 µM | > 10 µM | > 10 µM | > 10 µM | > 10 µM | > 10 µM | – | – | –
14 | Clc1ccc(/C=C/c2nc(-c3ccccc3)cn3c2nc2ccccc23)cc1Cl | > 100 µM | > 100 µM | > 100 µM | > 100 µM | – | – | > 100 µM | > 100 µM | > 100 µM | 48 µM | > 100 µM | > 100 µM | – | – | –
15 | COC(=O)C(Cc1ccccc1)NC(=O)CSc1nnc(COc2ccc(Cl)cc2)n1-c1ccccc1 (configuration not stated) | 54.6 µM | > 100 µM | 43.7 µM | 28.3 µM | 56.1 µM | – | 40 µM | 43 µM | 58.5 µM | 63.3 µM | 56.1 µM | > 100 µM | – | – | –
16 | C/C=C1/CC(C(=O)OC)N(C(=O)OCc2ccccc2)C1=S (configuration not stated) | > 100 µM | > 100 µM | > 100 µM | – | > 100 µM | > 100 µM | > 100 µM | > 100 µM | > 100 µM | – | > 100 µM | > 100 µM | – | – | –
17 | CC(=O)OCC1OC(n2c3c(c(-c4ccc(C)cc4)c(C#N)c2=S)C(=O)CC(C)(C)C3)C(OC(C)=O)C(OC(C)=O)C1OC(C)=O (configuration not stated) | > 100 µM | > 100 µM | 41.5 µM | 26.2 µM | 82.5 µM | > 100 µM | > 100 µM | 92.2 µM | > 100 µM | > 100 µM | > 100 µM | > 100 µM | – | – | –
18 | COC(=NC(C)C)NC(C)C | > 100 µM | – | > 100 µM | > 100 µM | > 100 µM | – | > 100 µM | – | > 100 µM | > 100 µM | > 100 µM | > 100 µM | – | – | –
19 | N#Cc1cc2c(cc1C#N)SCCSCCCSCCS2 | > 100 µM | > 100 µM | > 100 µM | 22.7 µM | 18.2 µM | > 57.8 µM | 14.3 µM | 18.1 µM | > 100 µM | > 75 µM | > 92.1 µM | > 100 µM | – | – | –
